The record followed here is ChEMBL document CHEMBL5226327, “Source and exploration of the peptides used to construct peptide-drug conjugates” (Eur J Med Chem, 2021).

In one test the test system is HT-1080. The test can be described thus: Inhibition of cell adhesion in human HT-1080 cells. The format is functional, cell-based.
Another test relates to HBL-100. The test can be described thus: Inhibition of cell adhesion in human HBL-100 cells. The format is functional, cell-based.
The test system of a further test is A-375. The test can be described thus: Inhibition of cell adhesion in human A-375 cells. In kind it is functional, cell-based.
Another test deals with Integrin alpha-5/beta-1 (Homo sapiens, UniProt P05556+P08648). The test can be described thus: Binding affinity to integrin alpha5beta1 (unknown origin) assessed as inhibition of integrin and fibronectin interaction. The format is protein-complex assay.

Molecules are shown by their SMILES. Positions of bridges follow the written chain, without caps; N, C: chain ends. Non-standard residues stand in square brackets, D forms with d. Residues, ends and D or L forms follow the SMILES beside them. Pen = CC(C)(S)[C@H](N)C(=O)O

A word on the IC50: it is the concentration that inhibits the measured activity by half.

Integrin alpha-5/beta-1, sequence (P05556 21-798 limits assumed): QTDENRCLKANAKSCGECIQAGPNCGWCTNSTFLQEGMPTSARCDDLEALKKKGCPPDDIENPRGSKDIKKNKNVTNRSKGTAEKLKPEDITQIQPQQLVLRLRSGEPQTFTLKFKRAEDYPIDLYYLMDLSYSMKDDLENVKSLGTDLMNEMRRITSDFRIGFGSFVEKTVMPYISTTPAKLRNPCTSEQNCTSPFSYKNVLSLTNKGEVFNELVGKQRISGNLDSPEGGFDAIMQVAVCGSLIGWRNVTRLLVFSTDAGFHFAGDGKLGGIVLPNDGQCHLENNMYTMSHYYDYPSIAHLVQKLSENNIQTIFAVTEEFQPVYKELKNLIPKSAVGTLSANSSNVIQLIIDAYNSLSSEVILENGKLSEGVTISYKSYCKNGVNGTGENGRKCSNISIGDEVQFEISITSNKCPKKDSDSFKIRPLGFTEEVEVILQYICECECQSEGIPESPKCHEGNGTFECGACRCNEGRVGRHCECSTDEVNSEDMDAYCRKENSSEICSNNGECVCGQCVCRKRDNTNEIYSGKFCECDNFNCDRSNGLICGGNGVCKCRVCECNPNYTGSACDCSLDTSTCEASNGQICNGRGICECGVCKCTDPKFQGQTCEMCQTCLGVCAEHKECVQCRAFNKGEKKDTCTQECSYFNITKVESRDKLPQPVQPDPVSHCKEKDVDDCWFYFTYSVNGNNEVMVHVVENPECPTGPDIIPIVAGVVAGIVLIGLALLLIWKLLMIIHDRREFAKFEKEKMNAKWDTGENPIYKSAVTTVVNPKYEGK
Integrin alpha-5/beta-1, sequence (P08648 42-894 limits assumed): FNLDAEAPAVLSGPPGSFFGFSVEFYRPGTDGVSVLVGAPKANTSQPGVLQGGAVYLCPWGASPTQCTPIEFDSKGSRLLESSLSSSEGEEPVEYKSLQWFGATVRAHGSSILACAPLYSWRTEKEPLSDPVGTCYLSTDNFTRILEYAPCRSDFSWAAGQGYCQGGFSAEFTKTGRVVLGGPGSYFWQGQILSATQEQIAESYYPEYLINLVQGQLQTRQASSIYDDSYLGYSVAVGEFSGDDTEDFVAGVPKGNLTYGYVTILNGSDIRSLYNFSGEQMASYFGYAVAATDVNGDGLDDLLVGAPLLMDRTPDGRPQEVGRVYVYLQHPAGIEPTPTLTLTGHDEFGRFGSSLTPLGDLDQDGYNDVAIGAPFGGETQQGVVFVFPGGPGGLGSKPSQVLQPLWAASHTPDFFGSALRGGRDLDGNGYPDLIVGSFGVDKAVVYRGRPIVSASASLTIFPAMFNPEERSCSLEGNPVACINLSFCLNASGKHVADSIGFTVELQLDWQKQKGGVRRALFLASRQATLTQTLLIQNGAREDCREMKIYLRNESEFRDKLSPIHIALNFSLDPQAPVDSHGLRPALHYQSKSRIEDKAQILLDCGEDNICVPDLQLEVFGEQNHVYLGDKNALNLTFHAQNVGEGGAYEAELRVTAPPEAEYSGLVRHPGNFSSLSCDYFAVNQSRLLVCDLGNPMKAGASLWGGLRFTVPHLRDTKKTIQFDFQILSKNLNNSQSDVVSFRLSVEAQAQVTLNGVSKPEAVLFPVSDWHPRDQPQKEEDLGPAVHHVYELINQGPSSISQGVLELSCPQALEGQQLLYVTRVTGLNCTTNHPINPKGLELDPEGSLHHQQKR
Integrin alpha-5/beta-1, sequence (P08648 895-1049 limits assumed): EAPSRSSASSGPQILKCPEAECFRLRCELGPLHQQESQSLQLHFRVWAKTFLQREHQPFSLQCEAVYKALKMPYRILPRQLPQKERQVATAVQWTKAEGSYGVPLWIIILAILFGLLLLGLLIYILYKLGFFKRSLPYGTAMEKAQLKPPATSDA

With `CC(=O)N[C@H]1CSSC(C)(C)[C@@H](C(N)=O)NC(=O)[C@H](Cc2ccccc2)NC(=O)[C@H](CC(=O)O)NC(=O)CNC(=O)[C@H](CCCNC(=N)N)NC1=O` (Ac-CRGDF[Pen]-NH2; disulfide 1-6), the IC50 in the test with HT-1080, in the test with HBL-100 and in the test on A-375 was 100 nM in each case.
Turning to `CC[C@H](C)[C@H](NC(=O)[C@@H](N)C(C)C)C(=O)N[C@@H](CC(C)C)C(=O)N[C@H](C(=O)N[C@@H](CC(C)C)C(=O)N[C@@H](Cc1ccccc1)C(=O)O)C(C)C` (H-VILVLF-OH), at Integrin alpha-5/beta-1, the IC50 is 1560 nM.
